Measured values reported in publication PMC11912224, “A general approach for activity-based protein profiling of oxidoreductases with redox-differentiated diarylhalonium warheads” (Chemical Science, 2025).

Legend:
[1] = target: T1, CYP27A1 (sterol-26-hydroxylase) (Mus musculus, UniProt Q9DBG1); test: covalent labelling, streptavidin enrichment, LC-MS/MS; settings: 30 uM probe, 1 h, mouse liver pieces
T1 construct: native, in intact mouse liver pieces
T1 sequence (Q9DBG1 33-533): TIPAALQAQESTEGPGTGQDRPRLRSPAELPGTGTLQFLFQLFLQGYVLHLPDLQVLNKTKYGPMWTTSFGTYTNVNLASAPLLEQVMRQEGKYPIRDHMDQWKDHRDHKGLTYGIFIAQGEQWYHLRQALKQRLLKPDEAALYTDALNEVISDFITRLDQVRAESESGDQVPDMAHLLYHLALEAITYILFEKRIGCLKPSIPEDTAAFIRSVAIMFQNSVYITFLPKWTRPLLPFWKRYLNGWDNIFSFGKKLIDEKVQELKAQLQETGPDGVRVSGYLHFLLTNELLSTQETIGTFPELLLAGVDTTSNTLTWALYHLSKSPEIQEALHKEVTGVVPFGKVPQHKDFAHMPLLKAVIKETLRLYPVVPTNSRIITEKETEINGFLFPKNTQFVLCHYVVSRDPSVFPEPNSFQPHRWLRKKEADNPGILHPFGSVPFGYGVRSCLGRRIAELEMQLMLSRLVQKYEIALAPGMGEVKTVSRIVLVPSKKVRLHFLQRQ

[2] = target: T2, CYP3A25 (Mus musculus, UniProt O09158); test: as above; settings: 30 uM probe, 1 h, mouse liver pieces
T2 construct: native, in intact mouse liver pieces
T2 sequence (O09158 1-503): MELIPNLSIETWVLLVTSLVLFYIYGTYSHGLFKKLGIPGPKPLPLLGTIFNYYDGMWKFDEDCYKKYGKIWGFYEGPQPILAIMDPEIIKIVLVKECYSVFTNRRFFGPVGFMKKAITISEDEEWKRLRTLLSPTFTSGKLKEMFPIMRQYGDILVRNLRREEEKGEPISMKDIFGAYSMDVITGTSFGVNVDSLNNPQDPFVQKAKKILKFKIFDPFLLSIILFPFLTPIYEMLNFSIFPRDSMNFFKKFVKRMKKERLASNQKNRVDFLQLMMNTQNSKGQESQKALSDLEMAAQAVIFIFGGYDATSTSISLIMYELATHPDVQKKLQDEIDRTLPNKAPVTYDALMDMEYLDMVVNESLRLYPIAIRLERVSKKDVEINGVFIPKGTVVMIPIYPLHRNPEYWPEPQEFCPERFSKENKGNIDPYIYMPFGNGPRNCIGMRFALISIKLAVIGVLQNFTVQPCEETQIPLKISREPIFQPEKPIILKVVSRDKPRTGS

SMILES: [N-]=[N+]=NCCCCCCCCCCNC(=O)c1ccc([I+]c2ccccc2)cc1 [3aa, diphenyliodonium probe 3aa]
- covalent labelling, streptavidin enrichment, LC-MS/MS [1]: cytochrome P450 monooxygenases (CYP3A25, CYP27A1)
- covalent labelling, streptavidin enrichment, LC-MS/MS [2]: cytochrome P450 monooxygenases (CYP3A25, CYP27A1)
